{"source": "patent US6066642A", "about": "“Dihydropyridine-, pyridine-, benzopyran-4-one- and triazoloquinazoline derivative, their preparation and their use as adenosine receptor antagonists” (priority 1998, dated 2000)", "data": [{"target": "T1, A2a receptors (Rattus norvegicus, UniProt P30543)", "T1 construct": "Displacement of specific [^3 H]; from tissue; host or cells: rat striatal membranes", "T1 sequence (P30543 whole entry)": "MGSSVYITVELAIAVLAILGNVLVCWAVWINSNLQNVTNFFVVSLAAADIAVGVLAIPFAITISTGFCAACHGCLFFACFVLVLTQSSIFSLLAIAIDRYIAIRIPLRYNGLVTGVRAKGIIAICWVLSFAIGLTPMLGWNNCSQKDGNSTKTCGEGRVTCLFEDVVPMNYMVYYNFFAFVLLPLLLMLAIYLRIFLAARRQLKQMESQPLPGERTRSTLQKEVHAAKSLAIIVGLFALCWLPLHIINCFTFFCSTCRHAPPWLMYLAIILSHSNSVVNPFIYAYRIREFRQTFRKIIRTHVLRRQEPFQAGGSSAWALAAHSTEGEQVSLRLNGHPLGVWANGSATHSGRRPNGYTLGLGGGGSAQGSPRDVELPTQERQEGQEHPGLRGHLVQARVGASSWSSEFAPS", "experiment": "radioligand binding, displacement of specific [3H]CGS 21680 binding in rat striatal membranes", "settings": "Table 3; [3H]CGS 21680, rat striatal membranes; read-out: Ki rA2a", "units": {"Ki": "µM"}, "description": "^b Displacement of specific [^3 H]\nor as a percentage of specific binding displaced at 100 μM.", "values": [{"compound": "CCOc1cc(O)c2c(=O)c(OCC)c(-c3ccccc3)oc2c1", "note": "[Compound 3b, 3,7-Diethoxy-5-hydroxyflavone]", "Ki": "63.8 ± 18.8"}]}, {"target": "T1, A2a receptors", "experiment": "radioligand binding, displacement of specific [3H]CGS 21680 binding in rat striatal membranes", "settings": "Table 6; [3H]CGS 21680, rat striatal membranes; read-out: K2 (rA2a)", "units": {"Ki": "µM"}, "values": [{"compound": "O=c1c(O)c(-c2ccc(O)c(O)c2)oc2cc(O)cc(O)c12", "note": "[Compound 37, quercetin, reference compound]", "Ki": "6.99 ± 0.89"}]}, {"target": "T1, A2a receptors", "experiment": "radioligand binding, displacement of specific [3H]CGS 21680 binding in rat striatal membranes", "settings": "Table 9; 10^-4 M; read-out: % of specific binding displaced rA2A", "units": {"inhibition at 100 µM": "%"}, "values": [{"compound": "COCCOC(=O)C1=C(C)NC(C)=C(C(=O)OC)C1C", "note": "(racemic) [Compound 53, 3-methyl,5-(2-methoxy)ethyl 2,4,6-trimethyl-1,4(R,S)-dihydropyridine-3,5-dicarboxylate]", "inhibition at 100 µM": 19}]}, {"target": "T1, A2a receptors", "experiment": "radioligand binding, displacement of specific [3H]CGS 21680 binding in rat striatal membranes", "settings": "Table 9; [3H]CGS 21680, rat striatal membranes; read-out: Ki rA2A", "units": {"Ki": "µM"}, "values": [{"compound": "CCOC(=O)C1=C(C)NC(C)=C(C(=O)OC)C1C", "note": "(racemic) [Compound 52, 3-Methyl-5-ethyl 2,4,6-trimethyl-1,4(R,S)-dihydropyridine-3,5-dicarboxylate]", "Ki": "> 100"}, {"compound": "COC(=O)C1=C(C)NC(C)=C(C(=O)OCc2ccccc2)C1C", "note": "(racemic) [Compound 54, 3-methyl,5-benzyl 2,4,6-trimethyl-1,4(R,S)-dihydropyridine-3,5-dicarboxylate]", "Ki": 9.72}, {"compound": "CCOC(=O)C1=C(C)NC(C)=C(C(=O)OC)C1CC", "note": "(racemic) [Compound 56, 3-Methyl-5-ethyl-2,6-dimethyl-4-ethyl-1,4(R,S)-dihydropyridine-3,5-dicarboxylate]", "Ki": "9.56 ± 2.69"}, {"compound": "CCCC1C(C(=O)OC)=C(C)NC(C)=C1C(=O)OCC", "note": "(racemic) [Compound 57, 3-methyl,5-ethyl 2,6-dimethyl-4-propyl-1,4(R,S)-dihydropyridine-3,5-dicarboxylate]", "Ki": 11.5}, {"compound": "CCOC(=O)C1=C(C)NC(C)=C(C(=O)OC)C1CC(C)CCC=C(C)C", "note": "(racemic) [Compound 58]", "Ki": 23.1}, {"compound": "CCOC(=O)C1=C(C)NC(C)=C(C(=O)OC)C1c1ccccc1C(F)(F)F", "note": "(racemic) [Compound 68, 3-methyl-5-ethyl-2,6-dimethyl-4-(2-α,α,α-trifluoromethylphenyl)-1,4(R,S)-dihydropyridine-3,5-dicarboxylate]", "Ki": 20.7}, {"compound": "CCOC(=O)C1=C(C)NC(C)=C(C(=O)OC)C1c1ccc(OC)cc1", "note": "(racemic) [Compound 71, 3-methyl-5-ethyl-2,6-dimethyl-4-(4-methoxyphenyl)-1,4(R,S)-dihydropyridine-3,5-dicarboxylate]", "Ki": "12.7 ± 3.8"}, {"compound": "CCOC(=O)C1=C(C)NC(C)=C(C(=O)OC)C1c1ccc(O)c(OC)c1", "note": "(racemic) [Compound 72, 3-methyl-5-ethyl-2,6-dimethyl-4-(4-hydroxy,3-methoxyphenyl)-1,4(R,S)-dihydropyridine-3,5-dicarboxylate]", "Ki": "56.8 ± 1.9"}, {"compound": "CCCCC1=C(C(=O)OCC)C(C)C(C(=O)OCC)=C(C)N1", "note": "(racemic) [Compound 77, 3,5-diethyl-2,4-dimethyl-6-butyl-1,4(R,S)-dihydropyridine-3,5-dicarboxylate]", "Ki": "38 ± 10.6"}, {"compound": "CCOC(=O)C1=C(C)NC(c2ccccc2)=C(C(=O)OCC)C1C", "note": "(racemic) [Compound 78, 3,5-diethyl-2,4-dimethyl-6-phenyl-1,4(R,S)-dihydropyridine-3,5-dicarboxylate]", "Ki": 35.9}, {"compound": "CCOC(=O)C1=C(C)NC(C)=C(C(=O)OCCCSc2ccccc2)C1C", "note": "(centres unmarked) [Compound 55]", "Ki": 7.1}, {"compound": "CCOC(=O)C1=C(C)NC(C)=C(C(=O)OCC)C1c1cccc([N+](=O)[O-])c1", "note": "[Compound 62]", "Ki": 18.2}, {"compound": "CCOC(=O)C1=C(C)NC(C)=C(C(=O)OC)C1CCc1ccccc1", "note": "(centres unmarked) [Compound 74]", "Ki": "6.71 ± 2.06"}]}, {"target": "T1, A2a receptors", "experiment": "radioligand binding, displacement of specific [3H]CGS 21680 binding in rat striatal membranes", "settings": "Table 11; [3H]CGS 21680, rat striatal membranes; read-out: Ki rA2A", "units": {"Ki": "µM"}, "values": [{"compound": "CCOC(=O)c1c(C)nc(-c2ccccc2)c(C(=O)OCC)c1/C=C/c1ccccc1", "note": "[A]", "Ki": 2.6}]}, {"target": "T1, A2a receptors", "experiment": "radioligand binding, displacement of specific [3H]CGS 21680 binding in rat striatal membranes", "settings": "Table 12; 10^-4 M", "units": {"% inhibition rA2A": "%"}, "values": [{"compound": "3,5-Diethyl 2,6-dimethyl-4-(2-thienyl)-1,4-(±)-dihydropyridine-3,5-dicarboxylate [Compound 114]", "% inhibition rA2A": 36}]}, {"target": "T1, A2a receptors", "experiment": "radioligand binding, displacement of specific [3H]CGS 21680 binding in rat striatal membranes", "settings": "Table 12; 10^-4 M; read-out: % inhibition rA2A", "units": {"inhibition at 100 µM": "%"}, "values": [{"compound": "CCOC(=O)C1=C(c2ccccc2)NC(C)=C(C(=O)OC[C@H](OC)c2ccccc2)C1C#Cc1ccccc1", "note": "(mixture of isomers) [Compound 128, 3-(2-Methoxy-2-phenyl)-ethyl 5-Ethyl 2-methyl-4-phenylethynyl-6-phenyl-1.4-(±)-dihydropyridine-3,5-dicarboxylate]", "inhibition at 100 µM": 33}, {"compound": "CCOC(=O)C1=C(C)NC(c2ccccc2)=C(C(=O)OCC)C1c1ccccn1", "note": "(racemic) [Compound 111, 3,5-Diethyl 2-methyl-4-(2-pyridyl)-6-phenyl-1,4-(±)-dihydropridine-3,5-dicarboxylate]", "inhibition at 100 µM": 25}, {"compound": "CCOC(=O)C1=C(C)NC(c2ccccc2)=C(C(=O)OCC)C1c1cccnc1", "note": "(racemic) [Compound 112, 3,5-Diethyl 2-methyl-4-(3-pyridyl)-6-phenyl-1,4-(±)-dihydropridine-3,5-dicarboxylate]", "inhibition at 100 µM": 40}, {"compound": "CCOC(=O)C1=C(C)NC(c2ccccc2)=C(C(=O)OCC[Si](C)(C)C)C1C#Cc1ccccc1", "note": "(racemic) [Compound 129, 3-Ethyl 5-(2-trimethylsilyl)-ethyl 2-methyl-4-phenylethynyl-6-phenyl-1,4-(±)-dihydropyridine-3,5-dicarboxylate]", "inhibition at 100 µM": "18 ± 5"}, {"compound": "CCOC(=O)C1=C(C)NC(c2ccccc2)=C(C(=O)SCC)C1C#Cc1ccccc1", "note": "(racemic) [Compound 130a, 3-Ethyl 5-thioethyl 2-methyl-4-phenylethynyl-6-phenyl-1,4(±)-dihydropyridine-3,5-dicarboxylate]", "inhibition at 100 µM": 17}, {"compound": "CCNC(=O)C1=C(c2ccccc2)NC(C)=C(C(=O)OCC)C1C#Cc1ccccc1", "note": "(racemic) [Compound 132, 3-Ethoxycarbonyl-2-methyl-4-phenylethynyl-6-phenyl-1,4(±)-dihydropyridine-5-carboxylic ethyl amide]", "inhibition at 100 µM": 47}, {"compound": "CCOC(=O)C1=C(c2ccccc2)NC(C)=C(C(=O)OC(C)(C)C)C1C#Cc1ccccc1", "note": "(racemic) [Compound 133, 3-t-Butyl 5-ethyl 2-methyl-4-phenylethynyl-6-phenyl-1,4-(±)-dihydropyridine-3,5-dicarboxylate]", "inhibition at 100 µM": "20 ± 2"}, {"compound": "CCNC(=O)C1=C(C)NC(c2ccccc2)=C(C(=O)OCC)C1C#Cc1ccccc1", "note": "(racemic) [Compound 134, 5-Ethoxycarbonyl-2-methyl-4-phenylethynyl-6-phenyl-1,4-(±)-dihydropyridine-3-carboxylic ethyl amide]", "inhibition at 100 µM": "19 ± 6"}, {"compound": "CCOC(=O)C1=C(c2ccccc2)NC2=C(C(=O)CCC2)C1C#Cc1ccccc1", "note": "(racemic) [Compound 136, Ethyl 3-oxo-1,4,5,6,7,8-hexahydroquinoline-2-methyl-4-phenylethynyl-6-phenyl-1,4-±-dihydropyridin-5-carboxylate]", "inhibition at 100 µM": "22 ± 4"}]}, {"target": "T1, A2a receptors", "experiment": "radioligand binding, displacement of specific [3H]CGS 21680 binding in rat striatal membranes", "settings": "Table 12; 10^-4 M; read-out: displacement of specific binding rA2A", "units": {"inhibition at 100 µM": "%"}, "values": [{"compound": "CCOC(=O)C1=C(C)NC(c2ccccc2)=C(C(=O)OCC)C1c1ccccc1", "note": "(racemic) [Compound 110, 3,5-Diethyl 2-methyl-4,6-diphenyl-1,4-(±)-dihydropyridine-3,5-dicarboxylate]", "inhibition at 100 µM": "< 10"}, {"compound": "CCOC(=O)C1=C(C)NC(c2ccccc2)=C(C(=O)OCC)C1c1cc2ccccc2o1", "note": "(racemic) [Compound 116, 3,5-Diethyl 2-methyl-4-(2-benzofuryl)-6-phenyl-1,4-(±)-dihydropridine-3,5-dicarboxylate]", "inhibition at 100 µM": "< 10"}]}, {"target": "T1, A2a receptors", "experiment": "radioligand binding, displacement of specific [3H]CGS 21680 binding in rat striatal membranes", "settings": "Table 12; [3H]CGS 21680, rat striatal membranes; read-out: Ki rA2A", "units": {"Ki": "µM"}, "values": [{"compound": "CCOC(=O)C1=C(C)NC(c2ccccc2)=C(C(=O)OCC)C1c1ccncc1", "note": "(racemic) [Compound 113, 3.5-Diethyl 2-methyl-4-(4-pyridyl)-6-phenyl-1,4(±)-dihydropyridine-3.5-dicarboxylate]", "Ki": "44.7 ± 3.7"}]}, {"target": "T1, A2a receptors", "experiment": "radioligand binding, displacement of specific [3H]CGS 21680 binding in rat striatal membranes", "settings": "read-out: % inhibition rA2A", "units": {"inhibition at 100 µM": "%"}, "values": [{"compound": "CCOC(=O)C1=C(C)NC(c2ccccc2)=C(C(=O)OCC)C1C#Cc1ccccc1", "note": "(racemic) [Compound 98]", "inhibition at 100 µM": 26}, {"compound": "CCOC(=O)C1=C(c2ccccc2)NC(C)=C(C(C)=O)C1C#Cc1ccccc1", "note": "(racemic) [Compound 135]", "inhibition at 100 µM": "17 ± 7"}]}]}
